Laboratory results: patent publication US20150307938A1, “METHOD TO IDENTIFY A NOVEL CLASS OF IMMUNOLOGIC ADJUVANTS” (Lancell, L.L.C., priority 2011, published 2015)
Marks after values point to notes of the source that are not given here.

Test system: full thickness skin
Experiment: Whole genome array of skin gene expression after topical DBP (time course)
Type: in vivo, C57BL/6J mice
Method: Mice: C57BL/6J female mice obtained from The Jackson Laboratory were used between 8 and 12 weeks of age.
Treatment: Mice were untreated or treated topically on the dorsal side of each ear with […] of dibutylphthalate (DBP). At the designated time points after treatment, the animals were euthanized and the ears washed with 70% isopropanol. Full thickness skin was obtained from the dorsal side of both ears and placed immediately in liquid nitrogen. The time between euthanasia and placement of both skin samples in liquid nitrogen was less than 1 minute. Each sample for RNA extraction contained two dorsal ear skin samples obtained from a single mouse both of whose ears received the same treatment.
RNA Extraction: While in liquid nitrogen, the skin was pulverized with a motorized mortar and pestle (CryoGrinder), transferred by inversion of the mortar directly into 1.5 ml cryogenic vials (Nalgene) and stored in liquid nitrogen until RNA extraction. Total RNA from both ears was extracted by homogenization (Pro200) in TRIzol Reagent (Invitrogen) with 7.5 μg of RNase-free glycogen added to the mixture, according to the manufacturer's directions. The RNA was purified on a solid phase RNeasy MinElute Cleanup column (Qiagen) and eluted with 17 μL of RNase-free water. The samples were stored at −20° C. until use.
Quantification of RNA: RNA yields were quantified by UV absorption using a NanoDrop NG-1000 spectrophotometer, where 1 AU 260 equals 40 μg RNA/ml. Purity was estimated by the 260 and 280 nm absorbance ratio; values between 1.7 and 2.1 were considered acceptable.
Assessment of RNA Quality: The quality of sample RNA was assessed using a RNA 6000 LABCHIP Kit on an Agilent 2100 Bioanalyzer. The Bioanalyzer determines the integrity/purity of the RNA samples and permits the screening of total and mRNA sample degradation and ribosomal RNA contamination. An RNA 6000 ladder was also loaded on a specified well and used as a reference for data analysis and a built-in quality control measure. The quality and integrity of the RNA was determined through visual inspection of each electropherogram. In general, only samples with a RIN (RNA integrity number) of 7 or greater, as determined by the Bioanalyzer, were used for gene arrays. This quality control analysis was repeated following the labeling procedure to ensure that the probes were efficiently labeled and had the correct size before hybridization to the chips. All samples that were run on genome wide arrays were obtained as independent duplicates from two individual mice.
Microarray Data Interpretation: Gene expression was compared between untreated and treated total RNA samples. “Transition” data, which represent the change in expression level for a given gene, are presented as a “weighted difference.” Changes in gene expression level were considered to be significant when the adjusted p values were less than […]. The “gene expression signature” arbitrarily includes only those genes that were transcribed with a weighted increase of 2.0 or greater, which was sustained over the subsequent time points tested.
The weighted difference is a metric that takes into account both the variability between different time-points and the variability between replicates at the same time-point. The calculations are performed for each time-point transition, i.e., 30 minutes vs. 1 hour, 1 hour vs. 2 hours, etc. There are two steps to the calculation: the calculation of a modified Euclidean difference between the two time-points, and the calculation of the Euclidean difference between the replicates within each time-point. The first measure is an unweighted difference, while the final metric given in the spreadsheet “weights” this difference by taking into account the second measure.
In a Euclidean difference calculation, each data point is considered as a vector in a multi-dimensional space, and the actual straight-line distance between the data points is calculated. […]

[1] = First 15 min after DBP application

Structure (SMILES): CCCCOC(=O)c1ccccc1C(=O)OCCCC [DBP, dibutylphthalate]
- DBP Unique genes, number (2 hr): 42
- DBP-Induced genes (≧2x Increased Expression), number (2 hr): 112
- TLR-Induced among DBP-induced genes, number (2 hr): 70^#
- Acot5 Change in Gene Expression (Weighted Difference) (2 hr to 4 hr Transition): 2.191
- Akr1c18 Change in Gene Expression (Weighted Difference) (2 hr to 4 hr Transition): −0.08563
- Areg Change in Gene Expression (Weighted Difference) (2 hr to 4 hr Transition): 3.401
- Atp2c2 Change in Gene Expression (Weighted Difference) (2 hr to 4 hr Transition): −0.002189
- Btg2 Change in Gene Expression (Weighted Difference) (2 hr to 4 hr Transition): 1.009
- Ccr4 Change in Gene Expression (Weighted Difference) (2 hr to 4 hr Transition): 0.03996
- Cdh10 Change in Gene Expression (Weighted Difference) (2 hr to 4 hr Transition): −0.008005
- Cish Change in Gene Expression (Weighted Difference) (2 hr to 4 hr Transition): 0.7204
- Cox17 Change in Gene Expression (Weighted Difference) (2 hr to 4 hr Transition): −0.1255
- Ctgf Change in Gene Expression (Weighted Difference) (2 hr to 4 hr Transition): 2.29
- Cysltr1 Change in Gene Expression (Weighted Difference) (2 hr to 4 hr Transition): −0.8049
- Ddx21 Change in Gene Expression (Weighted Difference) (2 hr to 4 hr Transition): 2.413
- Dlx4 Change in Gene Expression (Weighted Difference) (2 hr to 4 hr Transition): 3.05
- Dusp14 Change in Gene Expression (Weighted Difference) (2 hr to 4 hr Transition): 2.291
- Egr1 Change in Gene Expression (Weighted Difference) (2 hr to 4 hr Transition): 2.348
- Egr2 Change in Gene Expression (Weighted Difference) (2 hr to 4 hr Transition): 0.5934
- Fam115c Change in Gene Expression (Weighted Difference) (2 hr to 4 hr Transition): 2.163
- Fbxo42 Change in Gene Expression (Weighted Difference) (2 hr to 4 hr Transition): 2.267
- Fosl1 Change in Gene Expression (Weighted Difference) (2 hr to 4 hr Transition): 4.432
- Frk Change in Gene Expression (Weighted Difference) (2 hr to 4 hr Transition): −0.0494
- Gart Change in Gene Expression (Weighted Difference) (2 hr to 4 hr Transition): 5.268
- Gbp8 Change in Gene Expression (Weighted Difference) (2 hr to 4 hr Transition): −0.04223
- Gem Change in Gene Expression (Weighted Difference) (2 hr to 4 hr Transition): 1.546
- Gimap7 Change in Gene Expression (Weighted Difference) (2 hr to 4 hr Transition): 0.03205
- Has1 Change in Gene Expression (Weighted Difference) (2 hr to 4 hr Transition): 2.54
- Ier3 Change in Gene Expression (Weighted Difference) (2 hr to 4 hr Transition): 4.521
- Il10 Change in Gene Expression (Weighted Difference) (2 hr to 4 hr Transition): 2.932
- Il10ra Change in Gene Expression (Weighted Difference) (2 hr to 4 hr Transition): 0.1254
- Il20 Change in Gene Expression (Weighted Difference) (2 hr to 4 hr Transition): 2.876
- Irf4 Change in Gene Expression (Weighted Difference) (2 hr to 4 hr Transition): 3.715
- Jun Change in Gene Expression (Weighted Difference) (2 hr to 4 hr Transition): 0.9971
- Junb Change in Gene Expression (Weighted Difference) (2 hr to 4 hr Transition): 0.9119
- Kcnk1 Change in Gene Expression (Weighted Difference) (2 hr to 4 hr Transition): 32.8
- LOC100046066 Change in Gene Expression (Weighted Difference) (2 hr to 4 hr Transition): −0.1464
- LOC100046410 Change in Gene Expression (Weighted Difference) (2 hr to 4 hr Transition): 2.134
- Lcn5 Change in Gene Expression (Weighted Difference) (2 hr to 4 hr Transition): 3.183
- Madcam1 Change in Gene Expression (Weighted Difference) (2 hr to 4 hr Transition): −0.01081
- Maml1 Change in Gene Expression (Weighted Difference) (2 hr to 4 hr Transition): 3.564
- Map3k11 Change in Gene Expression (Weighted Difference) (2 hr to 4 hr Transition): 2.249
- Med17 Change in Gene Expression (Weighted Difference) (2 hr to 4 hr Transition): −2.259E−05
- Mkks Change in Gene Expression (Weighted Difference) (2 hr to 4 hr Transition): −0.2406
- Mndal Change in Gene Expression (Weighted Difference) (2 hr to 4 hr Transition): 0.09548
- Mtap7d1 Change in Gene Expression (Weighted Difference) (2 hr to 4 hr Transition): 6.99
- Myc Change in Gene Expression (Weighted Difference) (2 hr to 4 hr Transition): 1.296
- Myh3 Change in Gene Expression (Weighted Difference) (2 hr to 4 hr Transition): 8.012
- Myl2 Change in Gene Expression (Weighted Difference) (2 hr to 4 hr Transition): 12.2
- N6amt2 Change in Gene Expression (Weighted Difference) (2 hr to 4 hr Transition): −0.02824
- Nedd4l Change in Gene Expression (Weighted Difference) (2 hr to 4 hr Transition): 2.067
- Nr4a1 Change in Gene Expression (Weighted Difference) (2 hr to 4 hr Transition): 4.572
- P2ry1 Change in Gene Expression (Weighted Difference) (2 hr to 4 hr Transition): −0.2494
- Palmd Change in Gene Expression (Weighted Difference) (2 hr to 4 hr Transition): 2.134
- Prf1 Change in Gene Expression (Weighted Difference) (2 hr to 4 hr Transition): −0.1682
- Prss23 Change in Gene Expression (Weighted Difference) (2 hr to 4 hr Transition): 6.983
- Pxmp4 Change in Gene Expression (Weighted Difference) (2 hr to 4 hr Transition): 3.362
- Rai12 Change in Gene Expression (Weighted Difference) (2 hr to 4 hr Transition): 6.683
- Rassf5 Change in Gene Expression (Weighted Difference) (2 hr to 4 hr Transition): 2.519
- Sik1 Change in Gene Expression (Weighted Difference) (2 hr to 4 hr Transition): 1.009
- Slc25a25 Change in Gene Expression (Weighted Difference) (2 hr to 4 hr Transition): 2.285
- Slc39a8 Change in Gene Expression (Weighted Difference) (2 hr to 4 hr Transition): 2.101
- Tiparp Change in Gene Expression (Weighted Difference) (2 hr to 4 hr Transition): 2.281
- Tmed3 Change in Gene Expression (Weighted Difference) (2 hr to 4 hr Transition): −0.1013
- Tmem51 Change in Gene Expression (Weighted Difference) (2 hr to 4 hr Transition): 6.104
- Tnfaip8l1 Change in Gene Expression (Weighted Difference) (2 hr to 4 hr Transition): 2.28
- Tnip1 Change in Gene Expression (Weighted Difference) (2 hr to 4 hr Transition): 3.267
- Tnni1 Change in Gene Expression (Weighted Difference) (2 hr to 4 hr Transition): 3.47
- Tnnt1 Change in Gene Expression (Weighted Difference) (2 hr to 4 hr Transition): 2.946
- Trib1 Change in Gene Expression (Weighted Difference) (2 hr to 4 hr Transition): 2.432
- Zfp36 Change in Gene Expression (Weighted Difference) (2 hr to 4 hr Transition): 2.638
- Zfp326 Change in Gene Expression (Weighted Difference) (2 hr to 4 hr Transition): 2.164
- % Shared (DBP-induced genes also TLR-induced) (4 hr): 64%
- DBP Unique genes, number (4 hr): 13
- DBP-Induced genes (≧2x Increased Expression), number (4 hr): 36
- TLR-Induced among DBP-induced genes, number (4 hr): 23^#
- Acot5 Change in Gene Expression (Weighted Difference) [1]: 2.251
- Akr1c18 Change in Gene Expression (Weighted Difference) [1]: 3.655
- Atp2c2 Change in Gene Expression (Weighted Difference) [1]: 5.815
- Btg2 Change in Gene Expression (Weighted Difference) [1]: 61.87
- Ccr4 Change in Gene Expression (Weighted Difference) [1]: 2.16
- Cdh10 Change in Gene Expression (Weighted Difference) [1]: 2.487
- Cish Change in Gene Expression (Weighted Difference) [1]: 2.011
- Cox17 Change in Gene Expression (Weighted Difference) [1]: 2.318
- Cysltr1 Change in Gene Expression (Weighted Difference) [1]: 7.656
- Egr1 Change in Gene Expression (Weighted Difference) [1]: 3.561
- Egr2 Change in Gene Expression (Weighted Difference) [1]: 2.003
- Frk Change in Gene Expression (Weighted Difference) [1]: 6.498
- Gbp8 Change in Gene Expression (Weighted Difference) [1]: 4.073
- Gem Change in Gene Expression (Weighted Difference) [1]: 2.491
- Gimap7 Change in Gene Expression (Weighted Difference) [1]: 4.789
- Ier3 Change in Gene Expression (Weighted Difference) [1]: 5.581
- Il10ra Change in Gene Expression (Weighted Difference) [1]: 2.325
- Jun Change in Gene Expression (Weighted Difference) [1]: 6.095
- Junb Change in Gene Expression (Weighted Difference) [1]: 4.5
- LOC100046066 Change in Gene Expression (Weighted Difference) [1]: 2.503
- Madcam1 Change in Gene Expression (Weighted Difference) [1]: 4.39
- Med17 Change in Gene Expression (Weighted Difference) [1]: 3.949
- Mkks Change in Gene Expression (Weighted Difference) [1]: 11.97
- Mndal Change in Gene Expression (Weighted Difference) [1]: 2.311
- Myc Change in Gene Expression (Weighted Difference) [1]: 24.16
- N6amt2 Change in Gene Expression (Weighted Difference) [1]: 3.347
- Nr4a1 Change in Gene Expression (Weighted Difference) [1]: 5.48
- P2ry1 Change in Gene Expression (Weighted Difference) [1]: 2.279
- Prf1 Change in Gene Expression (Weighted Difference) [1]: 7.177
- Sik1 Change in Gene Expression (Weighted Difference) [1]: 3.072
- Slc39a8 Change in Gene Expression (Weighted Difference) [1]: 3.193
- Tmed3 Change in Gene Expression (Weighted Difference) [1]: 2.37
- Zfp36 Change in Gene Expression (Weighted Difference) [1]: 4.19
- % Shared (DBP-induced genes also TLR-induced) (Total): 64%
- DBP Unique genes, number (Total): 200
- DBP-Induced genes (≧2x Increased Expression), number (Total): 561 (33*)
- TLR-Induced among DBP-induced genes, number (Total): 361 (340^#)
